Assay results taken from US4072574A, “System for in vitro assay for mutagenicity and/or carcinogenicity of chemicals or other exogenous agents” (priority 1976, dated 1978).

Assays:
AMV DNA polymerase = assay: Fidelity of in vitro DNA synthesis (error frequency) with AMV DNA polymerase copying synthetic polynucleotide templates
Description: In this invention, the ability of carcinogens to decrease the fidelity of in vitro DNA synthesis will be used to screen for carcinogenic or mutagenic agents. The system uses synthetic polynucleotides of defined composition which may be copied in the test tubes with procaryotic, eucaryotic or viral DNA polymerases. The use of synthetic polynucleotides of defined composition allows the measurement of the simultaneous incorporation of the correct, complementary nucleotide and an incorrect, non-complementary nucleotide. The correct nucleotide is labeled with [α-^32 P] of low specific activity and the incorrect nucleotide is labeled with [^3 H] of high specific activity. Through this double labeled reaction it is possible to determine the simultaneous incorporation of both nucleotides and thus to determine an error frequency. The error frequency may be defined as the ratio of the incorrect/correct nucleotide incorporation. Agents which increase this error frequency may be scored as positive. […] Agents which score positive would be checked using different templates to underscore the positive results. In this system different polymerases will be used as well as different templates. One would expect that most carcinogens would change the fidelity of DNA synthesis with different polymerases as well as with different templates though this need not be the case.
Each assay will consist of a polymerase, a polynucleotide template that only contains one or two nucleotides, a complementary nucleotide and a non-complementary nucleotide as well as magnesium. Both of the nucleotides will be labeled by radioactive precursors and the ratio between the two is to be used for a measure of error frequency in the system. In instances where a template requires two complementary nucleotides, only one will be radioactively labeled.
Reactions (total volume 0.05 ml) which measured complementary nucleotide incorporation contained 50 mM Tris-HCL (pH 8.0), 20 mM KCl, 5 mM dithiothreitol, 5 mM MgCl2, 2μg BSA, […] [α-^32 P] -dTTP (60 dpm/pmole), 1μg poly (A).oligo (dT) (1:1.5 mass ratio), and 0.45 μg of AMV DNA polymerase. For simultaneous quantitation of complementary and non-complementary nucleotide incorporation each reaction was modified to contain 26μM [α-^32 P]dTTP (12 dpm/pmole) and 23μM [^3 H]-dCTP (50,000 dpm/pmole). […] Metals were added directly to the reaction mixture as aqueous solutions of chloride salts. All reactions were incubated for 60 min. at 37° C. Incorporation of radioactive nucleotides into an acid-insoluble and alkali-resistant product was determined by using the precipitation-solubilization procedure as described by Battula and Loeb. All experiments were performed in triplicate and the averages were determined.
In order to determine the effect of different metals on the accuracy of DNA replication, metal cations were added as chloride salts directly to the polymerase reaction. In these experiments, poly (A).oligo (dT) was the template-primer and the simultaneous incorporation of complementary nucleotide, [α-^32 P]-dTMP, and the non-complementery nucleotide, [^3 H]-dCMP, was determined.
The effect of metal salts on the fidelity of DNA synthesis was examined by testing each of the metal salts at a minimum of seven different concentrations.

[1] = known status of the compound; cited from earlier work
[2] = 4 mM KC2 H3 O2, template in drawing 5
[3] = 20 mM KC2 H3 O2, template in drawing 5
[4] = 40 mM KC2 H3 O2, template in drawing 5
[5] = 80 mM KC2 H3 O2, template in drawing 5
[6] = Table 1, template poly (C).oligo (dG), classes 1-3 not defined
[7] = Table 1, template poly [d(A-T)], classes 1-3 not defined
[8] = 4 mM MgSO4, template in drawing 6
[9] = 6 mM MgSO4, template in drawing 6
[10] = 8 mM MgSO4, template in drawing 6
[11] = 10 mM MgSO4, template in drawing 6

## CC(=O)[O-].[K+] [KC2 H2 O2]
AMV DNA polymerase; [2]
  Complementary Deoxynucleotide Incorporation: 484 pmol
  Error Frequency: 1/733
  Non-complementary Deoxynucleotide Incorporation: 0.66 pmol
AMV DNA polymerase; [3]
  Complementary Deoxynucleotide Incorporation: 423 pmol
  Error Frequency: 1/755
  Non-complementary Deoxynucleotide Incorporation: 0.56 pmol
AMV DNA polymerase; [4]
  Complementary Deoxynucleotide Incorporation: 378 pmol
  Error Frequency: 1/741
  Non-complementary Deoxynucleotide Incorporation: 0.51 pmol
AMV DNA polymerase; [5]
  Complementary Deoxynucleotide Incorporation: 379 pmol
  Error Frequency: 1/743
  Non-complementary Deoxynucleotide Incorporation: 0.51 pmol
AMV DNA polymerase; [6]
  Class: 3
AMV DNA polymerase; Table 2, classes not defined
  Class: 3
AMV DNA polymerase; template poly (C).oligo (dG)
  Metal Concentration which yielded the largest observed change in error rate: 100 mM
[1]
  Carcinogen or Mutagen: -

## [Cl-].[K+] [KCl, potassium chloride]
AMV DNA polymerase; 1 mM to 300 mM, poly (A).oligo (dT)
  effect on the fidelity of DNA synthesis (in words): did not alter the fidelity of DNA synthesis
AMV DNA polymerase; [7]
  Class: 2
AMV DNA polymerase; template poly [d(A-T)]
  Metal Concentration which yielded the largest observed change in error rate: 150 mM
[1]
  Carcinogen or Mutagen: -

## O=P([O-])(O)O.[K+] [KH2 PO4]
AMV DNA polymerase; [7]
  Class: 2
AMV DNA polymerase; template poly [d(A-T)]
  Metal Concentration which yielded the largest observed change in error rate: 80 mM
[1]
  Carcinogen or Mutagen: -

## O=S(=O)([O-])[O-].[Mg+2] [MgSO4]
AMV DNA polymerase; [8]
  Complementary Deoxynucleotide Incorporation: 299 pmol
  Error Frequency: 1/598
  Non-complementary Deoxynucleotide Incorporation: 0.50 pmol
AMV DNA polymerase; [9]
  Complementary Deoxynucleotide Incorporation: 398 pmol
  Error Frequency: 1/632
  Non-complementary Deoxynucleotide Incorporation: 0.63 pmol
AMV DNA polymerase; [10]
  Complementary Deoxynucleotide Incorporation: 349 pmol
  Error Frequency: 1/635
  Non-complementary Deoxynucleotide Incorporation: 0.55 pmol
AMV DNA polymerase; [11]
  Complementary Deoxynucleotide Incorporation: 360 pmol
  Error Frequency: 1/621
  Non-complementary Deoxynucleotide Incorporation: 0.58 pmol
AMV DNA polymerase; [6]
  Class: 3
AMV DNA polymerase; Table 2, classes not defined
  Class: 3
AMV DNA polymerase; template poly (C).oligo (dG)
  Metal Concentration which yielded the largest observed change in error rate: 10 mM
[1]
  Carcinogen or Mutagen: -

## [Cl][Mn][Cl] [MnCl2]
AMV DNA polymerase; [6]
  Class: 1
AMV DNA polymerase; template poly (C).oligo (dG)
  Metal Concentration which yielded the largest observed change in error rate: 10 mM
AMV DNA polymerase; various templates
  effect on the fidelity of DNA synthesis (in words): alter the fidelity

## [Cl-].[Na+] [NaCl]
AMV DNA polymerase; [7]
  Class: 2
AMV DNA polymerase; template poly [d(A-T)]
  Metal Concentration which yielded the largest observed change in error rate: 120 mM

## [Na+].[OH-] [NaOH]
AMV DNA polymerase; [7]
  Class: 3
AMV DNA polymerase; template poly [d(A-T)]
  Metal Concentration which yielded the largest observed change in error rate: 10 mM
[1]
  Carcinogen or Mutagen: -

## [Cl][Pb][Cl] [PbCl2]
AMV DNA polymerase; [6]
  Class: 1
AMV DNA polymerase; template poly (C).oligo (dG)
  Metal Concentration which yielded the largest observed change in error rate: 4 mM
[1]
  Carcinogen or Mutagen: +

## [Cl-].[Rb+] [RbCl2]
AMV DNA polymerase; [7]
  Class: 2
AMV DNA polymerase; template poly [d(A-T)]
  Metal Concentration which yielded the largest observed change in error rate: 20 mM
[1]
  Carcinogen or Mutagen: -

## Cn1c(=O)c2c(ncn2C)n(C)c1=O [caffeine]
AMV DNA polymerase; 0.1-20 mM, poly (A).oligo (dT)
  effect on the fidelity of DNA synthesis (in words): did not alter the fidelity of DNA synthesis

## CC1=C(/C=C/C(C)=C/C=C/C(C)=C/CO)C(C)(C)CCC1 [retinol]
AMV DNA polymerase; 0.2-2μg, poly (A).oligo (dT)
  effect on the fidelity of DNA synthesis (in words): did not alter the fidelity of DNA synthesis

## NCCCCNCCCN [spermidine]
AMV DNA polymerase; 0.1 to 5 mM, poly (A).oligo (dT)
  effect on the fidelity of DNA synthesis (in words): did not alter the fidelity of DNA synthesis
